Experimental data as given in the supplement of paper PMC8671470.

Columns and labels:
Details in all cases: 72 h
KCL-22 [1] = tested on: KCL-22
Summary of the method: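 Dose–response data were fitted with a four-parameter log-logistic model. They came from fifteen myeloid leukaemia lines treated in duplicate with five tenfold doses from 1 to 10,000 nM for 72 h at 37 °C with 5% CO2, with ATP viability normalised to vehicle and to a positive control at 10 µM. The IC50 was derived from these fits.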

BV-173 = assay: cell viability (% survival relative to DMSO control, bortezomib = 0%); higher = less cytotoxic
Summary of the method: (§1)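 Reported values are percent survival from duplicate wells, averaged. Fifteen myeloid leukaemia cell lines were treated in 384-well plates with compounds at 1, 10, 100, 1000 or 10000 nM for 72 h at 37 °C in 5% CO2. Signals from CellTiter-Glo luminescence were scaled with vehicle as 100% and a 10 µM positive control as 0%.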

HL-60 [2] = assay: as above
Summary of the method: as §1

THP-1 = assay: as above
Summary of the method: as §1

HEL = assay: as above
Summary of the method: as §1

ML-2 = assay: as above
Summary of the method: as §1

MOLM-13 = assay: as above
Summary of the method: as §1

KCL-22 [3] = assay: as above
Summary of the method: as §1

SHI-1 = assay: as above
Summary of the method: as §1

NOMO-1 = assay: as above
Summary of the method: as §1

K-562 = assay: as above
Summary of the method: as §1

KG-1 = assay: as above
Summary of the method: as §1

KU-812 = assay: as above
Summary of the method: as §1

LAMA-84 = assay: as above
Summary of the method: as §1

Mono-Mac-6 = assay: as above
Summary of the method: as §1

MV4-11 = assay: as above
Summary of the method: as §1

HL-60 [4] = assay: cell viability (% survival relative to DMSO control); higher = less cytotoxic
Summary of the method: (§2)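 Four-parameter log-logistic fits in drc and PharmacoGx supplied area under the curve where it is given. Underlying viability came from CellTiter-Glo, normalised to DMSO and proteasome-inhibitor wells, with the proteasome inhibitor at 10 μM. HL-60 cells in RPMI 1640 plus 10% FBS had been rescreened against the full library at five tenfold concentrations of 1–10,000 nM, in duplicate on 384-well plates, with DMSO or 100 nM of one of three metabolic inhibitors, for 72 h at 37 °C, 5% CO2.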

HL-60 [5] = assay: area under dose-response curve (viability, 1 nM-10 uM) (fraction (0-1)); higher = more sensitive
Summary of the method: as §2

O=C1c2cc([N+](=O)[O-])ccc2-n2c1nc1ccccc1c2=O [GNF-Pf-3777]
Details	IC50 (cell viability) [nM]
KCL-22 [1]	538

Details	area under dose-response curve, co-treatment: AZD3965 100 nM	area under dose-response curve, co-treatment: DMSO vehicle	area under dose-response curve, co-treatment: GSK2194069 100 nM	area under dose-response curve, co-treatment: pictilisib 100 nM	cell viability, 1 nM [%]	cell viability, 10 nM [%]	cell viability, 100 nM [%]	cell viability, 1000 nM [%]	cell viability, 10000 nM [%]
BV-173	–	–	–	–	95.9	104	89.5	66.4	4.9
HEL	–	–	–	–	98.5	105	105	53.1	13.6
HL-60 [2]	–	–	–	–	89.7	92.2	105	59.1	0.853
HL-60 [5]	0.15	0.122	0.154	0.165	–	–	–	–	–
K-562	–	–	–	–	102	100	103	56.2	4.1
KCL-22 [3]	–	–	–	–	87.9	115	102	37	21.2
KG-1	–	–	–	–	99.6	95.6	110	67.1	27.6
KU-812	–	–	–	–	91.6	91.1	87.9	53.4	6.51
LAMA-84	–	–	–	–	97.5	102	96.1	71.3	32.8
ML-2	–	–	–	–	96.7	99	97.8	94.1	28.8
MOLM-13	–	–	–	–	99.5	122	108	75.8	18
MV4-11	–	–	–	–	106	101	97.1	67.5	2.64
Mono-Mac-6	–	–	–	–	86.3	104	90.9	66.3	6.53
NOMO-1	–	–	–	–	92.3	99.9	90.3	86.7	31.8
SHI-1	–	–	–	–	99.9	104	92	66.6	16.5
THP-1	–	–	–	–	103	92.2	85.6	62.3	30.9

cell viability [%], HL-60 [4]
Details	0.001 µM	0.01 µM	0.1 µM	1 µM	10 µM
co-treatment: AZD3965 100 nM	103	100	105	89	2.3
co-treatment: DMSO vehicle	94.3	102	103	91.6	12.6
co-treatment: GSK2194069 100 nM	103	98.4	88.8	80.8	8.8
co-treatment: pictilisib 100 nM	95.5	101.2	92.2	78.63	6.29

CCCCN1C[C@H](O)[C@@H](O)[C@H](O)[C@H]1CO [Miglustat]
Details	IC50 (cell viability) [nM]
KCL-22 [1]	> 10000

Details	area under dose-response curve, co-treatment: AZD3965 100 nM	area under dose-response curve, co-treatment: DMSO vehicle	area under dose-response curve, co-treatment: GSK2194069 100 nM	area under dose-response curve, co-treatment: pictilisib 100 nM	cell viability, 1 nM [%]	cell viability, 10 nM [%]	cell viability, 100 nM [%]	cell viability, 1000 nM [%]	cell viability, 10000 nM [%]
BV-173	–	–	–	–	90.7	104	95.6	97.8	86.8
HEL	–	–	–	–	92.6	103	95.2	101	93.6
HL-60 [2]	–	–	–	–	87.6	81.8	98.7	101	91.8
HL-60 [5]	< 0.0301	< 0.0301	< 0.0301	< 0.0301	–	–	–	–	–
K-562	–	–	–	–	94.4	95.8	94.4	99.4	89.9
KCL-22 [3]	–	–	–	–	90.9	82.1	97.8	98.1	82.9
KG-1	–	–	–	–	92.6	102	94.8	103	93.2
KU-812	–	–	–	–	87.9	94.6	89.5	105	86.7
LAMA-84	–	–	–	–	94.3	97.8	96.4	103	92.8
ML-2	–	–	–	–	95.4	112	86.5	101	94.9
MOLM-13	–	–	–	–	90	102	90.7	93.9	90.8
MV4-11	–	–	–	–	99.2	91.3	103	94.4	92.2
Mono-Mac-6	–	–	–	–	82.9	90.4	92.4	95.4	92.7
NOMO-1	–	–	–	–	94.3	98.4	94	103	90
SHI-1	–	–	–	–	106	93	102	98.6	88.7
THP-1	–	–	–	–	91.1	93.3	89.6	102	94.7

cell viability [%], HL-60 [4]
Details	0.001 µM	0.01 µM	0.1 µM	1 µM	10 µM
co-treatment: AZD3965 100 nM	106	98.2	106	96.6	100
co-treatment: DMSO vehicle	101	101	103	98.7	98
co-treatment: GSK2194069 100 nM	91.5	94.4	104.5	99.5	101
co-treatment: pictilisib 100 nM	104	109	112	107	101
